Laboratory results: patent US11578110B2, “Compounds for inducing tissue formation and uses thereof” (HISTIDE AG, priority 2015, dated 2023)

Legend:
Neurons = assay: Neuron growth on modified titanium (dendrite growth, GAP43 Q-PCR); type: cell-based; details: covalently modified titanium
Experimental: Total RNA was extracted by using the RNeasy total RNA kit (Qiagen®) according to the manufacturer's instructions. Purified total RNA was used as a template in order to make cDNA by a reverse transcription reaction (Gibco Brl®) with random primers (Invitrogen®). The cDNA was then used as a template for a real-time PCR amplification in the presence of SYBR green reagents (Bio-Rad®) by using a thermocycler (iCycler, Biorad®). Data were analyzed with the iCycler IQ™® software and compared by the ΔΔCt method. Briefly, the mean Ct value of the target gene was normalized to its averaged Ct values of the housekeeping gene (HPRT) to give a ΔCt value, which was then normalized to a control sample to obtain a ΔΔCt value.
Neurons were cultured on native titanium (control) and on titanium covalently modified with neurogenic peptides (SEQ ID NO: 49). […] To further confirm this the expression of the Growth Associated Protein 43 (GAP43) gene was verified for neuron cells cultured on materials covalently modified with neurogenic peptides (SEQ ID NO: 49).

hMSCs = assay: STRO-1 stemness marker expression in hMSCs (immunostaining, ImageJ quantification); type: cell-based, Human; details: SEQ ID NO: 1 to 49 tested in combination with a bioactive carrier (titanium, ceramics, PEEK, hydrogel, etc.)
Outline: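 hMSCs exposed to GFR-binding peptides in solution or grafted on surfaces; cells fixed in 4% paraformaldehyde, permeabilized, stained with Stro-1 antibody (1 h, 37° C) plus Alexa Fluor secondary and DAPI. Stro-1 positive contact number and area quantified by thresholded image analysis, at least 30 cells per condition.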

Hair Follicle Stem Cells = assay: Activation of hair follicle stem cells on modified hydrogels (Sox2, BMP-6 release); type: cell-based, Mouse; details: hydrogel 73 kPa covalently modified
[1] = Stability of non-covalent peptide coating on apatite ceramics / type-I collagen (fluorescent peptides); type: physicochemical; details: non-covalent coating on apatite ceramics (SEQ ID NO: 23) or type-I collagen sponge (SEQ ID NO: 22); 3, 7 or 10 days
Experimental: Non-covalent modifications of the materials were performed in Air Atmosphere at room temperature. The non-covalent coating strategy consisted in using a mixture of inducing peptide (SEQ ID NO: 23; concentration of 1×10^−3M) with an apatite ceramics implant or a mixture of inducing peptide (SEQ ID NO: 22; concentration of 1×10^−3M) with a type-I collagen sponge. The non-covalently coated conventional materials were characterized by using fluorescent peptides (Here SEQ ID NO: 22 and 23 covalently bound to fluorescein isothiocyanate (FITC), FIG. 6). The results shown here in FIG. 6 were obtained from experiments performed with apatite ceramics and a type-I collagen sponge. […] Indeed, after 3, 7 or 10 days, the osteogenic peptides were still coupled to the ceramics or the type-I collagen (FIGS. 7a and b).

[2] = system: Human umbilical-vein endothelial cells; assay: Angiogenesis: tube-like structure formation of HUVECs on modified PET; type: cell-based; details: 18 hours, covalently modified PET
[3] = system: Human umbilical-vein endothelial cells; assay: Endothelialization: adherent junctions (CD31) of HUVECs on modified PET; type: cell-based; details: 36 hours, covalently modified PET
Experimental: An increase in the area of the adherent junctions (CD31) was observed after 36 hours of culture on the covalently modified PET (FIG. 13).

[4] = system: Human Mesenchymal Stem Cells (hMSCs); assay: Osteogenic differentiation of human mesenchymal stem cells (Runx2, Osterix immunostaining, ALP activity); type: cell-based; details: 1 week, type-I collagen sponge coupled with peptide
[5] = system: mouse mesenchymal pre-osteoblastic cells (MC3T3-E1); assay: Osteogenic differentiation of osteoblast progenitors (extracellular matrix, Osteopontin, Runx2 Q-PCR); type: cell-based; details: 48 hours
Experimental: The surface profiler system is a non-contact optical profiler that measures a wide range of surface heights. The vertical scanning interferometry mode allows for the measurement of rough surfaces and steps of up to several micrometers. This mode was used in order to measure the thickness of the extracellular matrix produced by the cells. First, after 24 h of culture, the cells were fixed with paraformaldehyde in PBS (4%) for 30 minutes at 4° C. and the samples were dehydrated in increasing concentrations of ethanol (30, 70, 80, 90, 95 and 100%) and critical-point dried. To evaluate the extent of the newly synthesized extracellular matrix, a spatula was used to scratch the surface of the materials. The samples were then metallized for 10 sec with gold or titanium before being analyzed.
Total RNA was extracted by using the RNeasy total RNA kit (Qiagen®) according to the manufacturer's instructions. Purified total RNA was used as a template in order to make cDNA by a reverse transcription reaction (Gibco Brl®) with random primers (Invitrogen®). […] Data were analyzed with the iCycler IQ™® software and compared by the ΔΔCt method. […]
The effect of these GFR-binding compounds as defined herein (SEQ ID NO: 33) on the differentiation of osteoblast progenitors was evaluated. […]

In the case of GIPEPSSVPAKMSPISILYI [SEQ ID NO: 49], the “cell-cell contacts via dendrite growth” value (Neurons; 6 hours) is reported as “rapid establishment”, the GAP43 gene expression (Neurons; 48 hours, Q-PCR) is reported as “high level of expression” and the STRO-1 expression (hMSCs) is reported as 19%.
In the case of GSAGPSSVPEKMSSLSILFF [SEQ ID NO: 42], the “BMP-6 release in the cell culture medium” value (Hair Follicle Stem Cells) is reported as “decrease”, the Sox2 protein expression (Hair Follicle Stem Cells) is reported as “increase” and the STRO-1 expression (hMSCs) is reported as 26%.
For “GTPGPHVTKPTSVPTKLSAISMLYL (GTPGPHVTKPTXVPTKLSAISMLYL; GFR-binding peptide; MOD_RES (12)..(12): Xaa is C or S) [SEQ ID NO: 23]”, the “release of peptides over time” value [1] was “no significant release” and the STRO-1 expression (hMSCs) was 28%.
With KVGKASSVPTKLSNITMQIM [SEQ ID NO: 39] the “formation of tube-like structures” value [2] was “observed” and the STRO-1 expression (hMSCs) was 32%.
For STPPTSSSRVRLRSVKVAKV [SEQ ID NO: 38], the “area of the adherent junctions (CD31)” value [3] was “increase” and the STRO-1 expression (hMSCs) was 34%.
With “WWFWGAAPASSSVPTRLSPISVLYK (WWFWGAAPASXXVPTRLSPISVLYK; GFR-binding peptide; MOD_RES (11)..(12): Xaa is C or S) [SEQ ID NO: 32]” the ALP activity [4] was “increase” and the STRO-1 expression (hMSCs) was 27%.
With “WWFWGKASKASSVPTKLSAISMLYL (WWFWGKASKAXXVPTKLSAISMLYL; GFR-binding peptide; MOD_RES (11)..(12): Xaa is C or S) [SEQ ID NO: 33]” the “differentiation of osteoblast progenitors” value ([5]; apatite ceramics or type-I collagen sponge coupled with peptide) was “differentiated into mature osteoblasts”, the “production of extracellular matrix proteins such as Osteopontin (OPN)” value ([5]; vs native type-I collagen sponge, immunofluorescence) was “extensive amounts” and the STRO-1 expression (hMSCs) was 26%.
For “WWFWGSAGPSSTPTKMSAISMLYL (WWFWGSAGPXXTPTKMSAISMLYL; GFR-binding peptide; MOD_RES (10)..(11): Xaa is C or S) [SEQ ID NO: 22]”, the “release of peptides over time” value [1] was “no significant release” and the STRO-1 expression (hMSCs) was 29%.
